Measurements reported in patent US8597645B2, “Cancer treatment with endothelin receptor antagonists” (New York University, priority 1999, dated 2013).
Like-named read-outs stand apart in the source and are kept apart here. Where a SMILES comes first, the peptide text is derived from it.

How the values were obtained:
[1] = tested on: E-cadherin protein levels in melanocytes (FM2030) and melanoma cells (SKMEL28); assay: Down-regulation of E-cadherin by ET-1, immunoblot analysis of lysates; type: cell-based, human; details: for blocking of E-cadherin down-regulation by ET-1: antagonist 100 nM added one hour before 10 nM ET-1, 40 hours
Description: A375, WM-266-4 and WM-1 15 melanoma cells were purchased from the ATCC. Culture conditions were as described in I. M. Shih, et al., Am. J. Pathol., 145:837-45 (1994). Two weeks prior to ET-stimulation, water soluble 12,13-phorbol dibutyrate was substituted for phorbol 12-myristate, 13-acetate in melanocyte medium. ET stimulations of melanocytes were carried out in phorbol-free medium. Cell pellets were incubated for 15 minutes in 6 pellet volumes of RIPA buffer (1% NP4O, 0.5% deoxycholic acid, 10 mM Tris pH 8.3, 150 mM NaCl, 50 mM NaF, 0.2 mM sodium vanadate, 1× protease inhibitors-Boehringer complete). After centrifugation, lysates were quantitated using protein assay reagent (Biorad). 2.5 ug of protein per sample were subjected to SDS-PAGE unless samples were prepared from A375, WM-266-4 or WM-1 15 cells in which case 100 ug protein per sample was used. BQ123 and BQ788 at 100 nM were added to cells one hour before ET-1 addition. Antibodies: anti-E-cadherin (Transduction labs), anti-mouse IgG-HRP (Santa-Cruz). ECL detection system (Amersham). ET-1, ET-3, BQ123, BQ788 (Peninsula labs).
Human neonatal melanocytes (FM2030) and human melanoma cells (SKMEL28) were stimulated with 10 nM ET-1 over a 40 hour time course and protein lysates were examined for E-cadherin protein levels by immunoblot analysis (FIG. 1A). […] E-cadherin protein levels returned to baseline by 72 hours. A delayed and prolonged response to ET-1 has also been reported in other cell types. R. Marsault, et al., Biochem. Biophys. Res. Commun., 179:1408-3 (1991). […] In addition to E-cadherin, expression of the adhesion molecules ICAM 1, CD44 and N-cadherin is altered during melanoma development. M. Y. Hsu, et al., J. Investig. Dermatol. Symp. Proc., 1:188-94 (1996); S. Vermeulen, et al., Pathol. Res. Pract, 192:694-707 (1996).
There are two well characterized ET-1 receptors, an A subtype (ETA) and a B subtype (ETB). A. G. Baynash, et al., Cell, 79:1277 85 (1994). Both subtypes are expressed by melanocytes while most melanoma cells express only ETB. ET-1 binds with equal affinity to both receptor subtypes. G. Imokawa, et al., Biochem. J., 314:305-12 (1996). To determine which subtype mediated the observed response, the assay was repeated in the presence of a selective ETA antagonist (BQ123) and a selective ETB antagonist (BQ788).

[2] = tested on: β-catenin and p120CTN protein levels in melanocytes and melanoma cells; assay: Down-regulation of β-catenin and p120CTN by ET-1, immunoblot of crude membrane fractions; type: cell-based, human
Description: To analyze membrane-associated catenin proteins, crude membrane fractions were prepared as follows: cell pellets were resuspended in 6 pellet volumes of buffer A (10 mM HEPES pH 7.5, 1.5 mM MgCl2, 10 mM KCl, 10 mM NaF, 0.2 mM sodium vanadate, 1× protease inhibitors-Boehringer complete) and allowed to swell for 10 min. Cell membranes were disrupted by vortexing for 10 s and membranes pelleted by centrifugation for 10 s. Supernatants containing cytoplasmic proteins were discarded. Membrane pellets were solubilized in RIPA buffer as described above and snap frozen on dry ice. 0.5 ug and 2.5 ug of protein lystes were used to examine levels of β-catenin and p120^CTN proteins respectively. Antibodies: anti-β-catenin and anti-p120^CTN (Transduction labs).
The catenins are cytoplasmic proteins that bind E-cadherin and are critical for E-cadherin function in cellular adhesion. J. M. Daniel, et al., Bloessays, 19: 883-91 (1997). Considering the importance of the catenins in E-cadherin function, the effect of ET-1 stimulation upon the levels of these proteins was studied. In both melanocytes and melanoma cells, ET-1 stimulation decreased β-catenin protein levels and increased its electrophoretic mobility (FIG. 2A). The kinetics of this response correlated well with those of E-cadherin down-regulation. BQ788, a selective ETB antagonist, blocked ET-1 mediated down-regulation of β-catenin (FIG. 2B).

[3] = tested on: caspase-8, caspases-3 and 7 in FM2030 and SKMEL28 cells; assay: Caspase activation by ET-1, immunoblot of crude cytoplasmic extracts; type: cell-based, human
Description: (§1) All caspase inhibitors contained a 16 amino-acid signal peptide derived from Kaposi Fibroblast Growth Factor to confer cell permeability (Calbiochem). Inhibitors were added to cells 34 hours post ET-1 stimulation and cells harvested at 40 hours. Crude cytoplasmic fractions were prepared as described for FIG. 2, except that supernatants containing cytoplasmic proteins were transferred to new tubes, supplemented with 0.11 volumes of buffer B (0.3M HEPES pH 7.9, 1.4M KCl, 0.03M MgCl2) and clarified by centrifugation. 10 ug of protein per sample was analyzed for caspase activation. Antibodies: Anti-caspase-8 antibody (UBI), Anti-caspase-3 and 7 (Transduction labs). Super Signal West Femto Maximum Sensitivity Substrate (PIERCE) was used for chemiluminescent detection of caspase proteins. Membranes were initially developed in a 1:5 dilution of the reagent made in H2O. If necessary, blots were briefly rinsed in TBS (10 mM Tris pH 8.0, 150 mM NaCl) and redeveloped with undiluted reagent for visualization of small fragments.
To determine whether caspase activation played a role in down-regulation of E-cadherin by ET-1, the assay was repeated in the presence of cell permeable inhibitors of a variety of different caspases (FIG. 3A). Strikingly, inhibitors containing the sequences IETD (inhibition of caspase-8) (SEQ ID NO:1) and DEVD (inhibition of caspases-3, 7, 8) (SEQ ID NO:2) were able to block down-regulation of E-cadherin by ET-1. The ‘DEVD’ (SEQ ID NO:2) inhibitor required a 10 fold higher concentration than the ‘IETD’ (SEQ ID NO:1) inhibitor in order to be effective (FIG. 3A. lower panel). Inhibitors specific for caspases 1, 4, 5, 6, 9 and 10 were without effect. […] Timepoints of maximal E-cadherin down-regulation coincided with the appearance of catalytically active caspase-8 subfragments (FIG. 3C, lower panel). Treatment of cells with a cell permeable inhibitor of caspase-8 prevented its proteolytic processing providing further evidence that caspase-8 activation is required for down-regulation of E-cadherin, β-catenin and p120^CTN by ET-1.

[4] = tested on: melanocytes and melanoma cells; assay: Immunofluorescence: subcellular localization of E-cadherin and β-catenin after ET-1; type: cell-based, human; details: 10 nM ET-1, 96 hours
Description: Cells were seeded onto collagen coated glass chamber slides in medium supplemented with 10 nM ET-1. At 48 hours, medium was aspirated and replaced with fresh ET-1 supplemented medium. At 96 hours, cells were fixed for 10 minutes in 3.7% formaldehyde/1 mM CaCl2/PBS, permeabilized for 10 minutes in 0.2% Triton X-100/PBS and blocked in 1% BSA/PBS for 10 minutes. Staining with E-cadherin and β-catenin antibodies diluted 1:50 in blocking buffer was performed for 45 minutes followed by a 30 minute incubation with goat-anti-mouse IgG-Cy3 (Jackson Immunoresearch labs) diluted 1:200 in blocking buffer. Cells were washed with PBS in between permeabilization and fixation steps and after antibody incubations.

isolated vascular strips = details: read-out: EC50 as contractile agent; cited from earlier work
ETA receptors = details: cited from earlier work; for IC50: read-out: IC50, inhibition of 125I-labeled ET-1 binding
ETB receptors = details: cited from earlier work; for inhibition of 125I-labeled ET-1 binding: non cardiovascular tissues: kidney, adrenal gland, cerebellum
[5] = tested on: caspases (E-cadherin, β-catenin, p120CTN read-out) in SKMEL28 and FM2030 cells; assay: Cell permeable caspase inhibitors on down-regulation of E-cadherin and catenins by ET-1; type: cell-based, human; details: inhibitors added 34 hours post ET-1, harvested at 40 hours
Description: as §1
To determine whether caspase activation played a role in down-regulation of E-cadherin by ET-1, the assay was repeated in the presence of cell permeable inhibitors of a variety of different caspases (FIG. 3A). […]

[6] = ET-1 stimulation, melanocytes and melanoma cells

For `CC(C)C[C@@H]1NC(=O)[C@@H](C(C)C)NC(=O)[C@@H]2CCCN2C(=O)[C@@H](CC(=O)O)NC(=O)[C@@H](Cc2c[nH]c3ccccc23)NC1=O` [BQ123, cyclo(D-Asp-Pro-D-Val-Leu-D-Trp)] (HELM PEPTIDE1{L.[dW].[dD].P.[dV]}$PEPTIDE1,PEPTIDE1,1:R1-5:R2$$$V2.0), the “blocking of E-cadherin down-regulation by ET-1” value [1] was “not”.

In the case of `CCCC[C@@H](NC(=O)[C@@H](Cc1cn(C(=O)OC)c2ccccc12)NC(=O)[C@H](CC(C)(C)C)NC(=O)N1[C@H](C)CCC[C@@H]1C)C(=O)O` [BQ788], the “blocking of E-cadherin down-regulation by ET-1” value [1] is reported as “blocked” and the “blocking of ET-1 mediated down-regulation of β-catenin” value ([2]; ETB antagonist with ET-1) is reported as “blocked”.

In the case of “ET-1: 21 amino-acid peptide secreted by keratinocytes; binds ETA and ETB”, the “E-cadherin protein level after ET-1 stimulation” value ([1]; 10 nM ET-1, by 40 hours, FM2030 and SKMEL28) is reported as “marked decrease”, the “time at which E-cadherin protein levels returned to baseline” value ([1]; 10 nM ET-1, FM2030 and SKMEL28) is reported as no more than 72 h and the “dose response of E-cadherin down-regulation” value ([1]; 0.5, 1.0, 10 nM ET-1, 40 hours, melanocytes and melanoma cells) is reported as “dose responsive”. The “protein levels of adhesion molecules ICAM 1, CD44 and N-cadherin” value ([1]; immunoblot of lysates after ET-1) was “no effect”, the “E-cadherin mRNA levels” value ([1]; northern blot analysis) was “no ET-1 dependent decrease” and the “down-regulation of E-cadherin in additional cell lines” value ([1]; one additional melanocyte line (CL-NHEM) and 4 additional melanoma lines) was “down-regulation of E-cadherin was observed in all lines except in A375 and WM 115”. The “p120CTN protein level and electrophoretic mobility” value ([2]; ET-1 stimulation) was “down-regulated and increased the electrophoretic mobility”, the β-catenin electrophoretic mobility [2, 6] was “increased” and the β-catenin protein levels [2, 6] was “decreased”. The “β-catenin mRNA levels” value ([2]; northern blot analysis) was “failed to reveal an ET-1 dependent decrease”, the “activation of distal caspases (caspases-3 and 7)” value ([3]; SKMEL28 and FM2030 cells) was “failure of ET-1 to activate distal caspases” and the “duration of ET-1 dependent proteolytic processing of caspase-8” value ([3]; after ET-1 stimulation) was 46 h. The “time at which ET-1 dependent proteolytic processing of caspase-8 was first detectable” value ([3]; after ET-1 stimulation) was “approximately 36 hours”, the induction of apoptosis ([3]; melanocytes and melanoma cells) was “failure to induce apoptosis” and the “E-cadherin staining in melanocytes” value [4] was “loss of concentration of E-cadherin staining at points of cell:cell contact”. The “E-cadherin staining in melanoma cells” value [4] was “markedly decreased intensity of membranous staining”, the “β-catenin staining in melanocytes” value [4] was “loss of concentration of β-catenin at lateral cell borders and at points of cell: cell contact” and the “β-catenin staining in melanoma cells” value [4] was “loss of most of the membranous staining”. The melanocyte morphology ([4]; bright field micrographs) was “large nuclei with prominent nucleoli, abundant cytoplasm, polygonal morphology”, the EC50 (isolated vascular strips) was 0.4 nM and the “potency of inhibition of 125I-labeled ET-1 binding relative to ET-3” value (ETA receptors; cardiovascular tissues) was “forty to seven hundred times more potently”. For the same compound, the “inhibition of 125I-labeled ET-1 binding” value (ETB receptors) was “inhibited to the same extent”.

For “ET-3: ET isopeptide, a selective ETB agonist”, the “down-regulation of E-cadherin by ET-3” value ([1]; 10 nM ET-3, 40 hours) is listed as “potent down-regulator” and the “inhibition of 125I-labeled ET-1 binding” value (ETB receptors) is listed as “inhibited to the same extent”.

In the case of IETD, the “blocking of down-regulation of E-cadherin by ET-1” value [5] is reported as “able to block”.

In the case of “cyclo(D-Glu-L-Ala-allo-D-Ile-L-Leu-D-Trp) [BE-18257B]”, the IC50 (ETA receptors; aortic smooth muscle) is given as 1400 nM, the IC50 (ETA receptors; cultured aortic smooth muscle cells) is given as 500 nM and the IC50 (ETA receptors; ventricle membranes) is given as 800 nM. For the same compound, the IC50 (ETB receptors; tissues in which ETB receptors predominate, read-out: concentration up to which binding is not inhibited) was greater than 100000 nM.
